Measured values: PMC8242589, “Cardiac Safety of Kinase Inhibitors – Improving Understanding and Prediction of Liabilities in Drug Discovery Using Human Stem Cell-Derived Models” (Frontiers in Cardiovascular Medicine, 2021)
Where two headings read alike, the source gives them in different places.

Key:
Type in all cases: cell-based, human
[1] = system: hSC-CMs (Cor.4U Cardiomyocytes); test: CardioExcyte 96 impedance and EFP recording (beating rate, base impedance); conditions: for BR / Base Imp / activity at 0.03 µM / activity at 0.3 µM / activity at 3 µM / activity at 30 µM: vs baseline before drug (taken as 100%); for activity at 0.03 µM / activity at 0.3 µM / activity at 3 µM / activity at 30 µM: Homo sapiens, Cardiomyocyte
Experimental: Cor.4U® Cardiomyocytes (Ncardia, Netherlands) were cultured in 96-well plates at density of 25,000 – 30,000 cells per well. Cells were maintained at 5% CO2 and 37 °C for 4 days prior to experiments.
Functional monitoring of cardiomyocytes was done using CardioExcyte® 96 (Nanion technologies GmbH, Germany). Extracellular field potential (EFP) and impedance signals were recorded from hSC-CMs that formed monolayers in the wells of the NSP-96 plate. Beating Rate (BR, per minute) was calculated as the reciprocal of the inter-spike interval (ISI) in EFP signal. Impedance signals from spontaneously beating hSC-CMs were recorded with a sampling rate of 1 ms (1 kHz), and EFP data were collected at 0.1ms (10 kHz). Data acquisition was controlled by CardioExcyte® 96 Control software as previously described ([22]). The functional parameters recorded in each concentration of test items were compared to the base line values before drug addition (taken as 100%) to define fractional change.

[2] = system: hSC-CMs (Cor.4U Cardiomyocytes); test: Apoptosis assay (CellEvent Caspase-3/7 Green, IncuCyte ZOOM kinetics over 24 h); design: key to Caspase / Caspase MEAN: % of time-matched vehicle control (green object area); conditions: for Caspase / activity at 0.03 µM / activity at 0.3 µM / activity at 3 µM / activity at 30 µM: normalized to time-matched vehicle control; for Caspase MEAN: DMSO = 100; for activity at 0.03 µM / activity at 0.3 µM / activity at 3 µM / activity at 30 µM: Homo sapiens, Cardiomyocyte
Experimental: Cor.4U® Cardiomyocytes ([…], Netherlands) were cultured in 96-well plates at density of 25,000 - 30,000 cells per well. Cells were maintained at 5% CO2 and 37 °C for 4 days prior to experiments. […] The plates were incubated 2 h before compound treatment in the IncuCyte ZOOM (ESSEN BioScience, Ann Arbor, Michigan) to set a baseline before the 24 h compound treatment. […] Imaging was done using 10x microscope objective of the IncuCyteZOOM with four images per well-taken every 2 h in both phase-contrast and green fluorescence. The fluorescent nuclear signal of the apoptotic cells was separated from background with the integrated object counting algorithm, adjusted to cardiomyocytes, and the calculated total green object area per well (μm^2/well) plotted against time. Data were normalized to those of the time-matched vehicle control. Data were representative of at least three replicates per concentration.

[3] = system: hSC-CMs (Cor.4U Cardiomyocytes); test: ATP assay (CellTiter-Glo Luminescent Cell Viability Assay); conditions: for ATP: normalized to time-matched DMSO control
Experimental: Cor.4U® Cardiomyocytes (Ncardia, Netherlands) were cultured in 96-well plates at density of 25,000 – 30,000 cells per well. Cells were maintained at 5% CO2 and 37 °C for 4 days prior to experiments. The cell culture medium (Cor4U® Complete Culture Medium, cat# Ax-M-HC250E, Axiogenesis AG, Cologne, Germany) was changed every 24 h and was replaced by serum-free BMCC medium (cat# Ax-M-BMCC259, Axiogenesis AG, Cologne, Germany) 12 h prior to drug addition.
The CellTiter-Glo Luminescent Cell Viability Assay (cat# G7572, Promega, USA) was performed for quantification of the cellular ATP concentration according to manufacturer's instructions. Plates were shaken for 2 min in the dark, incubated at ambient temperature for 10 min before measuring luminescence (Integration time 0.1 seconds per well) with Luminescence Counter (Synergy H1, BioTek Instruments, Inc., Winooski, Vermont). The measured ATP concentration values were normalized to the time-matched DMSO controls. Data are representative of at least three replicates per concentration.

CCOC(=O)c1cnc2ccc(-c3cncc(NS(=O)(=O)c4ccccc4)c3)cn12 [HS-173]
BR ([1]; 0.03 µM, 2h): 105
Base Imp ([1]; 0.03 µM, 2h): 87
BR ([1]; 0.03 µM, 24h): 97
Base Imp ([1]; 0.03 µM, 24h): 87
BR ([1]; 0.1 µM, 2h): 93
Base Imp ([1]; 0.1 µM, 2h): 83
BR ([1]; 0.1 µM, 24h): 89
Base Imp ([1]; 0.1 µM, 24h): 85
BR ([1]; 0.3 µM, 2h): 85
Base Imp ([1]; 0.3 µM, 2h): 81
BR ([1]; 0.3 µM, 24h): 84
Base Imp ([1]; 0.3 µM, 24h): 72
BR ([1]; 1 µM, 2h): 86
Base Imp ([1]; 1 µM, 2h): 69
BR ([1]; 1 µM, 24h): 75
Base Imp ([1]; 1 µM, 24h): 67
Reduction of base impedance ([1]; hSC-CMs, 2 and 24 h): more than 20%
Reduction of beating rate ([1]; hSC-CMs, 2 and 24 h): more than 20%
Apoptosis (caspase-3/7 activation), result in words [2]: induced apoptosis in hSC-CMs with a fast onset
Caspase ([2]; 0.03 µM, 2h): 167
Caspase ([2]; 0.03 µM, 24h): 80
Caspase ([2]; 0.1 µM, 2h): 138
Caspase ([2]; 0.1 µM, 24h): 151
Caspase ([2]; 0.3 µM, 2h): 123
Caspase ([2]; 0.3 µM, 24h): 200
Caspase ([2]; 1 µM, 2h): 120
Caspase ([2]; 1 µM, 24h): 373
Time to reach the maximum number of apoptotic cells ([2]; hSC-CMs, monitored over 24 h): ≤ 12 h
ATP ([3]; 0.03 µM, 2h): 89
ATP ([3]; 0.03 µM, 24h): 98
ATP ([3]; 0.1 µM, 2h): 87
ATP ([3]; 0.1 µM, 24h): 99
ATP ([3]; 0.3 µM, 2h): 86
ATP ([3]; 0.3 µM, 24h): 90
ATP ([3]; 1 µM, 2h): 86
ATP ([3]; 1 µM, 24h): 83
Decrease of ATP level ([3]; hSC-CMs, after 24 h of incubation): 20–25%

CN[C@@H]1C[C@H]2O[C@@](C)([C@@H]1OC)n1c3ccccc3c3c4c(c5c6ccccc6n2c5c31)C(=O)NC4 [Staurosporine]
Caspase MEAN ([2]; 1 µM, Time 2.75): 85
Caspase MEAN ([2]; 1 µM, Time 4.75): 254
Caspase MEAN ([2]; 1 µM, Time 6.75): 1532
Caspase MEAN ([2]; 1 µM, Time 8.75): 3137
Caspase MEAN ([2]; 1 µM, Time 10.75): 4841
Caspase MEAN ([2]; 1 µM, Time 12.75): 5989
Caspase MEAN ([2]; 1 µM, Time 14.75): 7301
Caspase MEAN ([2]; 1 µM, Time 16.75): 7458
Caspase MEAN ([2]; 1 µM, Time 18.75): 8506
Caspase MEAN ([2]; 1 µM, Time 20.75): 7604
Caspase MEAN ([2]; 1 µM, Time 22.75): 7381
Caspase MEAN ([2]; 1 µM, Time 24.75): 7608
Caspase MEAN ([2]; 1 µM, Time 26.75): 7240

Cn1c(=O)n(-c2ccc(C(C)(C)C#N)cc2)c2c3cc(-c4cnc5ccccc5c4)ccc3ncc21 [NVP-BEZ235, Dactolisib]
activity at 0.03 µM ([1]; 0.03 µM, 2h, read-out: BR): 99%
activity at 0.03 µM ([1]; 0.03 µM, 2h, read-out: Base Imp): 88%
activity at 0.03 µM ([1]; 0.03 µM, 24h, read-out: BR): 90%
activity at 0.03 µM ([1]; 0.03 µM, 24h, read-out: Base Imp): 85%
activity at 0.3 µM ([1]; 0.3 µM, 2h, read-out: BR): 73%
activity at 0.3 µM ([1]; 0.3 µM, 2h, read-out: Base Imp): 86%
activity at 0.3 µM ([1]; 0.3 µM, 24h, read-out: BR): 57%
activity at 0.3 µM ([1]; 0.3 µM, 24h, read-out: Base Imp): 75%
activity at 3 µM ([1]; 2h, read-out: BR): 39%
activity at 3 µM ([1]; 2h, read-out: Base Imp): 71%
activity at 3 µM ([1]; 24h, read-out: BR): 14%
activity at 3 µM ([1]; 24h, read-out: Base Imp): 52%
activity at 30 µM ([1]; 2h, read-out: BR): 19%
activity at 30 µM ([1]; 2h, read-out: Base Imp): 51%
activity at 30 µM ([1]; 24h, read-out: BR): 30%
activity at 30 µM ([1]; 24h, read-out: Base Imp): 45%
Effect on cardiomyocyte function in 3D surface plots (beating rate, base impedance, ATP), in words ([1]; hSC-CMs, 2 and 24 h): pronounced effects
Reduction of base impedance ([1]; hSC-CMs, 2 and 24 h): more than 20%
Reduction of beating rate ([1]; hSC-CMs, 2 and 24 h): more than 20%
activity at 0.03 µM ([2]; 0.03 µM, 2h): 242%
activity at 0.03 µM ([2]; 0.03 µM, 24h): 188%
activity at 0.3 µM ([2]; 0.3 µM, 2h): 148%
activity at 0.3 µM ([2]; 0.3 µM, 24h): 320%
activity at 3 µM ([2]; 2h): 72%
activity at 3 µM ([2]; 24h): 228%
activity at 30 µM ([2]; 2h): 86%
activity at 30 µM ([2]; 24h): 355%
Apoptosis (caspase-3/7 activation), result in words ([2]; hSC-CMs, monitored over 24 h): induced apoptosis in hSC-CMs with a fast onset
Time to reach the maximum number of apoptotic cells ([2]; hSC-CMs, monitored over 24 h): ≤ 12 h
